What is called pEC50 is the EC50 on a negative log10 scale, so that one unit is a factor of ten.

pEC50: −log10 of the molar value. Some results are limits rather than exact numbers.

The target in this assay is human activated kallikrein enzyme (Homo sapiens, UniProt P03952). The assay can be described thus: Inhibition of human activated plasma kallikrein, fluorogenic peptide substrate (PFR-AMC), 500 pM enzyme format. Format: biochemical. Particulars: 500 pM activated kallikrein, 30 min preincubation, 10 min reaction, room temperature, read-out: Primary Dose Response Assay: Average EC50. The procedure: Compounds were evaluated for inhibition of the human activated kallikrein enzyme in two formats of an assay employing a fluorogenic peptide substrate. In one assay format, the concentrations of reagents were as follows: 20 mM Tris pH 7.5, 1 mM EDTA, 150 mM sodium chloride, 0.1% PEG-400, 0.1% Triton X-100, 500 pM activated kallikrein enzyme, […] Pro-Phe-Arg-7-amido-4-methylcoumarin (PFR-AMC) substrate. Prior to reaction initiation with substrate, enzyme and inhibitors were preincubated for 30 min at room temperature. After initiation with substrate, reactions were incubated for 10 min at room temperature and fluorescence emission at 460 nm from 380 nm excitation measured with a microplate reader. In another assay format, the concentrations of reagents were as follows: 20 mM Tris pH 7.5, 1 mM EDTA, 150 mM sodium chloride, 0.1% PEG-400, 0.1% Triton X-100, 5 pM activated kallikrein enzyme, 300 uM PFR-AMC substrate. Prior to reaction initiation with substrate, enzyme and inhibitors were preincubated for 30 min at room temperature. After initiation with substrate, reactions were incubated for 18 hr at room temperature and fluorescence emission at 460 nm from 380 nm excitation measured with a microplate reader.
Sequence of human activated kallikrein enzyme (P03952 391-638 limits assumed): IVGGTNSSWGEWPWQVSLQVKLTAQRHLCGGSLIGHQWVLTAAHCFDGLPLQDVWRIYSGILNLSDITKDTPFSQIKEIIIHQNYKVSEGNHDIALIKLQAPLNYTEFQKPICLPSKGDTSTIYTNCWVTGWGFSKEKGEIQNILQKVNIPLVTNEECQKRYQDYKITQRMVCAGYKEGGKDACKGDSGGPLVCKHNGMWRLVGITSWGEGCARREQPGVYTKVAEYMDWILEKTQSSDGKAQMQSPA
Sequence of human activated kallikrein enzyme (P03952 20-390 partner limits assumed): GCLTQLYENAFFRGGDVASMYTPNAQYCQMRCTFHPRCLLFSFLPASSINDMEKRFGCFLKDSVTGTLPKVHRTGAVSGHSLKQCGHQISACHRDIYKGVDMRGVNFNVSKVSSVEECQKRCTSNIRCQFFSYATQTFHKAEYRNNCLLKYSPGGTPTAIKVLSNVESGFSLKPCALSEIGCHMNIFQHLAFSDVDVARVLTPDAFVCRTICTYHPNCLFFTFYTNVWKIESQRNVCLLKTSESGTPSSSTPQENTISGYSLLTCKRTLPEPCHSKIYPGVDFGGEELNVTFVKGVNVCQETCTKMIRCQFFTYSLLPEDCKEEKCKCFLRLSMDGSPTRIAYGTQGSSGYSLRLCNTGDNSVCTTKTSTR
On to `Cc1ccnc([C@H]2C[C@@H]2C(=O)Nc2cc(NCc3ccc(N4CC5CC5C4)nc3)ncn2)n1` (relative stereo) [Example 79, rac-(1S*,2S*)—N-(6-(((6-(3-azabicyclo[3.1.0]hexan-3-yl)pyridin-3-yl)methyl)amino)pyrimidin-4-yl)-2-(4-methylpyrimidin-2-yl)cyclopropane-1-carboxamide], for which the negative logarithm of the EC50 (pEC50) is 7.60 to 8.60. With `O=C(Nc1cc(NCc2ccc(Cn3ccccc3=O)cc2)cnn1)[C@H]1C[C@@H]1c1cccc(Cl)c1` (single isomer, unassigned) [Example 15], the pEC50 is 6.30 to 7.60. Consider `O=C(Nc1cc(NCc2ccc(Cn3ccccc3=O)cc2)cnn1)[C@@H]1C[C@H]1c1cccc(Cl)c1` (single isomer, unassigned) [Example 16], for which the pEC50 was > 8.60. The value for `Cc1ccnc([C@@H]2C[C@H]2C(=O)Nc2cc(N3C[C@@H](O)C[C@@H]3c3cn4cc(C5CC5)cnc4n3)ncn2)c1` (single isomer, unassigned) [Example 74, (1S*,2S*)—N-(6-((2R,4S)-2-(6-cyclopropylimidazo[1,2-a]pyrimidin-2-yl)-4-hydroxypyrrolidin-1-yl)pyrimidin-4-yl)-2-(4-methylpyridin-2-yl)cyclopropane-1-carboxamide] was < 6.30; that for `Cc1ccnc([C@H]2C[C@@H]2C(=O)Nc2cc(N[C@@H](C)c3nc4c(N5CC(=O)N(C)C5=O)cc(C5CC5)cn4n3)ncn2)n1` (single isomer, unassigned; isomer 2) [Example 108] was 7.60 to 8.60; that for `O=C(Nc1cc(OCc2ccc(Cn3cccn3)cc2)cnn1)C1CC12C(=O)Nc1ccccc12` (stereo not shown) [Example 7, N-(5-((4-((1H-pyrazol-1-yl)methyl)benzyl)oxy)pyridazin-3-yl)-2′-oxospiro[cyclopropane-1,3′-indoline]-2-carboxamide] was < 6.30. The value for `O=C(Nc1cc(NCc2nc3ccc(C4CC4)cn3n2)ncn1)[C@H]1C[C@@H]1c1cccc(Cl)c1` [Example 26, (1S,2S)-2-(3-chlorophenyl)-N-(6-(((6-cyclopropyl-[1,2,4]triazolo[1,5-a]pyridin-2-yl)methyl)amino)pyrimidin-4-yl)cyclopropane-1-carboxamide] was 6.30 to 7.60; that for `O=C(Nc1cc(NCc2nc3ccc(C4CC4)nn3n2)ncn1)[C@H]1C[C@@H]1c1cccc(Cl)c1` [Example 28, (1S,2S)-2-(3-chlorophenyl)-N-(6-(((6-cyclopropyl-[1,2,4]triazolo[1,5-b]pyridazin-2-yl)methyl)amino)pyrimidin-4-yl)cyclopropane-1-carboxamide] was < 6.30; that for `O=C(Nc1cc(NCc2nc3ncc(C4CC4)cn3n2)ncn1)[C@H]1C[C@@H]1c1cccc(Cl)c1` [Example 32, (1S,2S)-2-(3-chlorophenyl)-N-(6-(((6-cyclopropyl-[1,2,4]triazolo[1,5-a]pyrimidin-2-yl)methyl)amino)pyrimidin-4-yl)cyclopropane-1-carboxamide] was 7.60 to 8.60. The value for `O=C(Nc1cc(NCc2ccc3ncc(C4CC4)cc3c2)ccn1)[C@H]1C[C@@H]1c1cccc(Cl)c1` [Example 33, (1S,2S)-2-(3-chlorophenyl)-N-(4-(((3-cyclopropylquinolin-6-yl)methyl)amino)pyridin-2-yl)cyclopropane-1-carboxamide] was 7.60 to 8.60; that for `O=C(Nc1cc(NCc2cnc3ccc(C4CC4)cc3c2)ccn1)[C@H]1C[C@@H]1c1cccc(Cl)c1` [Example 34, (1S,2S)-2-(3-chlorophenyl)-N-(4-(((6-cyclopropylquinolin-3-yl)methyl)amino)pyridin-2-yl)cyclopropane-1-carboxamide] was 7.60 to 8.60; that for `O=C(Nc1cc(NCc2cn3c(=O)n(C4CC4)ccc3n2)ccn1)[C@H]1C[C@@H]1c1cccc(Cl)c1` [Example 36, (1S,2S)-2-(3-chlorophenyl)-N-(4-(((6-cyclopropyl-5-oxo-5,6-dihydroimidazo[1,2-c]pyrimidin-2-yl)methyl)amino)pyridin-2-yl)cyclopropane-1-carboxamide] was 7.60 to 8.60. Consider `CC(C)Oc1nccc2nc(CNc3cc(NC(=O)[C@H]4C[C@@H]4c4cccc(Cl)c4)ncn3)cn12` [Example 37, (1S,2S)-2-(3-chlorophenyl)-N-(6-(((5-isopropoxyimidazo[1,2-c]pyrimidin-2-yl)methyl)amino)pyrimidin-4-yl)cyclopropane-1-carboxamide], for which the pEC50 was < 6.30. The same measure for `CC(C)n1ccc2nc(CNc3cc(NC(=O)[C@H]4C[C@@H]4c4cccc(Cl)c4)ncn3)cn2c1=O` [Example 38, (1S,2S)-2-(3-chlorophenyl)-N-(6-(((6-isopropyl-5-oxo-5,6-dihydroimidazo[1,2-c]pyrimidin-2-yl)methyl)amino)pyrimidin-4-yl)cyclopropane-1-carboxamide]: 6.30 to 7.60; for `O=C(Nc1cc(NCc2nc3c(N4CCOC4=O)cc(C4CC4)cn3n2)ncn1)[C@H]1C[C@@H]1c1cccc(Cl)c1` [Example 43, (1S,2S)-2-(3-chlorophenyl)-N-(6-(((6-cyclopropyl-8-(2-oxooxazolidin-3-yl)-[1,2,4]triazolo[1,5-a]pyridin-2-yl)methyl)amino)pyrimidin-4-yl)cyclopropane-1-carboxamide]: 7.60 to 8.60. The value for `O=C(Nc1cc(NCc2cn3nc(C4CC4)cc(N4CCOC4=O)c3n2)ncn1)[C@H]1C[C@@H]1c1cccc(Cl)c1` [Example 44, (1S,2S)-2-(3-chlorophenyl)-N-(6-(((6-cyclopropyl-8-(2-oxooxazolidin-3-yl)imidazo[1,2-b]pyridazin-2-yl)methyl)amino)pyrimidin-4-yl)cyclopropane-1-carboxamide] was 7.60 to 8.60; that for `CCOC(=O)CCc1cc(C2CC2)cc2cc(CNc3cc(NC(=O)[C@H]4C[C@@H]4c4cccc(Cl)c4)ncn3)nn12` [Example 47, ethyl 3-(2-(((6-((1S,2S)-2-(3-chlorophenyl)cyclopropane-1-carboxamido)pyrimidin-4-yl)amino)methyl)-5-cyclopropylpyrazolo[1,5-a]pyridin-7-yl)propanoate] was 7.60 to 8.60.

On to `O=C(O)CCc1cc(C2CC2)cc2cc(CNc3cc(NC(=O)[C@H]4C[C@@H]4c4cccc(Cl)c4)ncn3)nn12` [Example 48, 3-(2-(((6-((1S,2S)-2-(3-chlorophenyl)cyclopropane-1-carboxamido)pyrimidin-4-yl)amino)methyl)-5-cyclopropylpyrazolo[1,5-a]pyridin-7-yl)propanoic acid], for which the pEC50 is 7.60 to 8.60. `O=C(Nc1cc(NCc2cn3c(NC4CC4)nccc3n2)ncn1)[C@H]1C[C@@H]1c1cccc(Cl)c1` [Example 50, (1S,2S)-2-(3-chlorophenyl)-N-(6-(((5-(cyclopropylamino)imidazo[1,2-c]pyrimidin-2-yl)methyl)amino)pyrimidin-4-yl)cyclopropane-1-carboxamide]: the pEC50 is < 6.30. Consider `CC(C)(O)CCc1cc(C2CC2)cc2cc(CNc3cc(NC(=O)[C@H]4C[C@@H]4c4cccc(Cl)c4)ncn3)nn12` [Example 51, (1S,2S)-2-(3-chlorophenyl)-N-(6-(((5-cyclopropyl-7-(3-hydroxy-3-methylbutyl)pyrazolo[1,5-a]pyridin-2-yl)methyl)amino)pyrimidin-4-yl)cyclopropane-1-carboxamide], for which the pEC50 is 7.60 to 8.60.

With `CC(C)(C#N)Cc1cc(C2CC2)cc2cc(CNc3cc(NC(=O)[C@H]4C[C@@H]4c4cccc(Cl)c4)ncn3)nn12` [Example 55, (1S,2S)-2-(3-chlorophenyl)-N-(6-(((7-(2-cyano-2-methylpropyl)-5-cyclopropylpyrazolo[1,5-a]pyridin-2-yl)methyl)amino)pyrimidin-4-yl)cyclopropane-1-carboxamide], the pEC50 was 7.60 to 8.60. On to `CN1CCN(c2cc(C3CC3)cn3nc(CNc4cc(NC(=O)[C@H]5C[C@@H]5c5cccc(Cl)c5)ncn4)nc23)CC1` [Example 58, (1S,2S)-2-(3-chlorophenyl)-N-(6-(((6-cyclopropyl-8-(4-methylpiperazin-1-yl)-[1,2,4]triazolo[1,5-a]pyridin-2-yl)methyl)amino)pyrimidin-4-yl)cyclopropane-1-carboxamide], for which the pEC50 was 7.60 to 8.60.

Take `CN1CCN(c2cc(Cl)cc3cc(CNc4cc(NC(=O)[C@H]5C[C@@H]5c5cccc(Cl)c5)ncn4)cnc23)CC1` [Example 59, (1S,2S)—N-(6-(((6-chloro-8-(4-methylpiperazin-1-yl)quinolin-3-yl)methyl)amino)pyrimidin-4-yl)-2-(3-chlorophenyl)cyclopropane-1-carboxamide]: the pEC50 was 7.60 to 8.60. The same measure for `CN1C(=O)CN(c2cc(C3CC3)nn3cc(CNc4cc(NC(=O)[C@H]5C[C@@H]5c5cccc(Cl)c5)ncn4)nc23)C1=O` [Example 62, (S,2S)-2-(3-chlorophenyl)-N-(6-(((6-cyclopropyl-8-(3-methyl-2,4-dioxoimidazolidin-1-yl)imidazo[1,2-b]pyridazin-2-yl)methyl)amino)pyrimidin-4-yl)cyclopropane-1-carboxamide]: 7.60 to 8.60; for `O=C(Nc1cc(N2C[C@@H](O)C[C@@H]2C(=O)Nc2ccc(C3CC3)cc2)ncn1)[C@H]1C[C@@H]1c1cccc(Cl)c1` [Example 64, (2R,4S)-1-(6-((1S,2S)-2-(3-chlorophenyl)cyclopropane-1-carboxamido)pyrimidin-4-yl)-N-(4-cyclopropylphenyl)-4-hydroxypyrrolidine-2-carboxamide]: < 6.30.

The record behind these values is patent publication US20240226106A1, “INHIBITORS OF PLASMA KALLIKREIN” (SHIRE HUMAN GENETIC THERAPIES, INC., priority 2021, published 2024).
